Laboratory results taken from patent US20110152166A1, “METHOD OF MODULATION OF PROTEIN PHOSPHORYLATION-DEPENDENT CONFORMATIONAL TRANSITIONS WITH LOW MOLECULAR WEIGHT COMPOUNDS” (priority 2006, published 2011).

Columns and labels:
PDK1 = target: T1, PDK1 (Homo sapiens, UniProt O15530); experiment: PDK1 kinase activity with S6K tail peptides; format: biochemical
T1 sequence (O15530 1-556): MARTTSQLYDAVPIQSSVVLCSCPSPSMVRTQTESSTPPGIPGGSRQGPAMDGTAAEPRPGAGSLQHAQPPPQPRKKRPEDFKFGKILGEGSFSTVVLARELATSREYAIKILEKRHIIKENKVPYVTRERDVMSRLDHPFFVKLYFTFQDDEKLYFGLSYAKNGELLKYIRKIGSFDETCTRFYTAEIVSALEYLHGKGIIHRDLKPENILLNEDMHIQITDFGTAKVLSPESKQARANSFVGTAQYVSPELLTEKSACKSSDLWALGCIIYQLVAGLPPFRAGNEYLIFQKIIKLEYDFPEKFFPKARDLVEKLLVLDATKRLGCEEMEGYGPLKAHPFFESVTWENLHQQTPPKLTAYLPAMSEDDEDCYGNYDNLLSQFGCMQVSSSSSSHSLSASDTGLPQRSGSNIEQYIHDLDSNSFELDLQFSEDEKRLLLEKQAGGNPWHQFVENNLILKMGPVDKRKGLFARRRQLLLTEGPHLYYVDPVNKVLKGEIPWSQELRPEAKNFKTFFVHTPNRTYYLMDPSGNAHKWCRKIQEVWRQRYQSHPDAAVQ
Experimental: FIG. 21 (A) Aliquots of S6K1 protein from bar 1, 2, 5 and 6 in FIG. 5B were subjected to immunoblotting with phosphorylation site specific Ab against the activation loop or anti-HA Ab. (B) The kinase activity of PKB<143-479, prephosphorylated by PDK1 in the activation loop, was determined in the presence of increasing concentrations of synthetic PRK2 tail peptides encompassing the HM, which were either nonphosphorylated (PIFtide) or phosphorylated at the tail site (pT958-PIFtide). […] (C) The kinase activity of purified PDK1 was determined in the presence of increasing concentrations of synthetic S6K tail peptide (residues 366-395) that was either phosphorylated at T389 (S371/pT389) or phosphorylated at both 5389 and 5371 (pS371/pT389). Kinase activity is expressed as percent, and data are means+/−SD of 3 independent experiments. (D) Synthetic S371/pT389 S6K tail peptide and pS371/pT389 S6K tail peptide were biotinylated and used to coat streptavidin Sensor Chips. PDK150-360 was injected at different concentrations (0.05-5.4 mM) onto the peptide coated chips. In the inserts, the kinetic constants were obtained by fitting the data to a hyperbola using kaleidagraph software. Representative results from one of several experiments are shown.

PDK1 50-360 = target: T2, PDK1 50-360 (Homo sapiens, UniProt O15530); experiment: Isothermal Titration Calorimetry; format: binding; conditions: ITC
T2 construct: the catalytic domain of PDK1 (50-359) produced in SF9 insect cells; His-tag (pFastbac-HT, TEV site) (N, cleaved yes); made in house; host or cells: Sf9 insect cells (baculovirus, pFastbac-HT)
T2 sequence (O15530 50-359): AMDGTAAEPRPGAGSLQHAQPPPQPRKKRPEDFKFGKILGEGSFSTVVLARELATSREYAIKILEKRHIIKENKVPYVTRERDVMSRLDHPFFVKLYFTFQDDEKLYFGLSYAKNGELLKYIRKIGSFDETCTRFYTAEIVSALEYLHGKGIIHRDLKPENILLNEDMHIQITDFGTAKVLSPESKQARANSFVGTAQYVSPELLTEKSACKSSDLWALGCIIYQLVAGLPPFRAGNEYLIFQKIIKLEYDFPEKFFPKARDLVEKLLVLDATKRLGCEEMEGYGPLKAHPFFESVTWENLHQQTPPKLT
Experimental: FIG. 8—Characterization of compound 1 interaction with PDK1 50-360 by Isothermal Titration Calorimetry (ITC). Upper panel, raw data of the titration of compound 1 into PDK1 50-360. Lower panel, integrated heats of injection, corrected for the heat of dilution, with the solid line corresponding to the best fit of the data using Origin™ software. The best fit corresponded to a model with one type of sites. […] The calorimetric titration was performed using the VP-ITC instrument from MicroCal Inc. (Northampton, Mass.) as previously described (Schaeffer et al., 2002) with the following modifications. PDK1 and compound 1 were prepared in 50 mM Tris-HCl (pH 7.5), 175 mM NaCl, 1 mM DTT and 3% DMSO. Titration was performed by 30 successive injections (10 μl) of compound 1 (0.9 mM) into a 1.41 ml reaction cell containing PDK1 50-360 ([…]). Raw calorimetric data were corrected for the heat of dilution, and analyzed using the program Origin™ provided by the manufacturer. Binding stoichiometry, enthalpy and equilibrium dissociation constants were determined by fitting corrected data to a model with a single binding site.

activation of PDK1 by tail peptide (in words) (PDK1)	N (binding stoichiometry) (PDK1 50-360)	TΔS (PDK1 50-360) [kcal/mol]	ΔH (PDK1 50-360)	Kd (PDK1 50-360; one type of sites, pH 7.5, 3% DMSO) [µM]	Compound
activated to the same extent					S371/pT389: synthetic S6K1 tail peptide (residues 366-395) phosphorylated in the HM
	1.0 ± 0.1	4.3 ± 0.2	−2.1+0.1 kcal·mol^−1	18	O=C(O)CSC(CC(=O)c1ccc(Cl)cc1)c1ccccc1 (centres unmarked) [Compound 1]
